{
  "source": "patent US12409180B2",
  "about": "“Formulation production process” (Verona Pharma PLC, priority 2022, dated 2025)",
  "type_in_all_cases": "physicochemical",
  "key": {"[1]": {"experiment": "Assay testing by HPLC of products after sterilisation", "conditions": "dry heat treatment at temperatures of from 150° C. to 170° C.", "description": "(§1) Assay testing was performed in duplicate with the key high performance liquid chromatography (HPLC) parameters shown in Table 1.\n(§2) The assays and related substances of the products obtained by each of sterilisation techniques A to F were assessed by the HPLC methods described above."}, "[2]": {"experiment": "Impurities determination (related substances) by HPLC of products after sterilisation", "conditions": "dry heat treatment at temperatures of from 150° C. to 170° C.", "description": "(§3) Impurities determination was performed in duplicate with the key high performance liquid chromatography (HPLC) parameters shown in Table 2.\nas §2"}, "[3]": {"experiment": "Overall assessment of products (assay and related substances) after sterilisation", "description": "as §1, §3, §2"}},
  "data": [
    {"smiles": "COc1cc2c(cc1OC)-c1c/c(=N\\c3c(C)cc(C)cc3C)n(CCNC(N)=O)c(=O)n1CC2", "note": "[micronised ensifentrine, N-(2-{(2E)-9,10-dimethoxy-4-oxo-2-[(2,4,6-trimethylphenyl)imino]-6,7-dihydro-2H-pyrimido [6,1-a]isoquinolin-3(4H)-yl}ethyl) urea]", "values": [
      {"measurement": "changes in assay", "setting": "[1]", "value": "no significant changes"},
      {"measurement": "changes in purity", "setting": "[2]", "value": "no significant changes"},
      {"measurement": "changes observed (assay and related substances)", "setting": "[3]; technique C: dry heat treatment of dry powder, 150° C. for 150 minutes", "value": "No significant changes observed."},
      {"measurement": "changes observed (assay and related substances)", "setting": "[3]; technique D: dry heat treatment of dry powder, 160° C. for 120 minutes", "value": "No significant changes observed."},
      {"measurement": "changes observed (assay and related substances)", "setting": "[3]; technique E: dry heat treatment of dry powder, 170° C. for 60 minutes", "value": "No significant changes observed."}
    ]}
  ]
}
